We go through eight molecules from patent US6525001B1, “Substituted pyrimidine and pyridine herbicides” (Mid-American Commercialization Corporation, priority 1997, dated 2003).

Assay type in all cases: in vivo
Assay [1] concerns sugarcane (Saccharum officinarum). In words: Test E pre-/postemergence/post directed. As to conditions: PREEMERGENCE
Also on record: key: 0 is no injury; 100 is complete control. An outline of the steps:
(§1)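 Injury scored visually on a 0–100 scale (100 = complete control) 13 to 21 days after treatment. Test chemicals, formulated with surfactant in non-phytotoxic solvent, were applied to soil within one day of planting, to plants at two to four leaves (three to twenty cm), or as directed spray at plant base.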

For assay [2], the system named is barnyardgrass (Echinochloa crus-galli). Put plainly: Test E pre-/postemergence/post directed. As to conditions: PREEMERGENCE
The essentials:
as §1

The next assay has as its system B. signalgrass. Put plainly: Test E pre-/postemergence/post directed. As to conditions: PREEMERGENCE
Also on record: key: 0 is no effect; 100 is complete control. The essentials:
as §1

Assay [3] relates to Spanishneedles (Bidens bipinnata). Put plainly: Test E pre-/postemergence/post directed. Details: key: 0 is no effect; 100 is complete control. As to conditions: PREEMERGENCE
An outline of the steps: as §1

Assay [4] deals with alexandergrass (Brachiaria plantaginea). Put plainly: Test E pre-/postemergence/post directed. Also on record: key: 0 is no effect; 100 is complete control. As to conditions: PREEMERGENCE
The essentials: as §1

Assay [5] has as its system annual bluegrass (Poa annua). In words: Test E pre-/postemergence/post directed. Also on record: key: 0 is no effect; 100 is complete control. As to conditions: PREEMERGENCE
The essentials: as §1

Assay [6] concerns arrowleaf sida (Sida rhombifolia). In words: Test E pre-/postemergence/post directed. Also on record: key: 0 is no effect; 100 is complete control. As to conditions: PREEMERGENCE
An outline of the steps: as §1

The test system of assay [7] is common chickweed (Stellaria media). Put plainly: Test E pre-/postemergence/post directed. Details: key: 0 is no effect; 100 is complete control. To be noted: PREEMERGENCE
The essentials:
as §1

The test system of assay [8] is green foxtail (Setaria viridis). Put plainly: Test E pre-/postemergence/post directed. Details: key: 0 is no effect; 100 is complete control. As to conditions: PREEMERGENCE
An outline of the steps:
as §1

Assay [9] has as its system johnson grass (Sorghum halepense). In words: Test E pre-/postemergence/post directed. Details: key: 0 is no effect; 100 is complete control. To be noted: Rate 250 g/ha. The essentials:
as §1

Assay [10] concerns leafy spurge (Euphorbia esula). Put plainly: Test E pre-/postemergence/post directed. Also on record: key: 0 is no effect; 100 is complete control. As to conditions: PREEMERGENCE
The essentials:
as §1

The subject of assay [11] is quackgrass (Agropyron repens). In words: Test E pre-/postemergence/post directed. Also on record: key: 0 is no effect; 100 is complete control. As to conditions: PREEMERGENCE
An outline of the steps:
as §1

Assay [12] has as its system sandbur (Cenchrus echinatus). In words: Test E pre-/postemergence/post directed. As to conditions: PREEMERGENCE, Rate 250 g/ha. Details: key: 0 is no effect; 100 is complete control. The essentials: as §1
The subject of assay [13] is downy brome (Bromus tectorum). In words: Test D. To be noted: PREEMERGENCE
Assay [14] concerns wild mustard (Sinapis arvensis). In words: Test D. As to conditions: PREEMERGENCE
Details: key: 0 is no effect; 100 is complete control.

In assay [15] the test system is itchgrass (Rottboellia exaltata). In words: Test E pre-/postemergence/post directed. Details: key: 0 is no injury; 100 is complete control. To be noted: PREEMERGENCE
The essentials:
as §1

Assay [16] deals with johnson grass (Sorghum halepense). In words: Test E pre-/postemergence/post directed. Also on record: key: 0 is no injury; 100 is complete control. To be noted: PREEMERGENCE, Rate 64 g/ha. The essentials: as §1
For assay [17], the system named is pitted morningglory (Ipomoea lacunosa). In words: Test E pre-/postemergence/post directed. As to conditions: PREEMERGENCE
Details: key: 0 is no effect; 100 is complete control. An outline of the steps: as §1

For `Cc1cnc(-c2ccc(C(F)(F)F)cc2)nc1Cc1cccc(OC(F)(F)F)c1` [Compound 15], the “Plant response rating, Sugarcane” value amounted to 0 in assay [1] (Rate 32 g/ha), 0 in [1] (Rate 64 g/ha), 10 in assay [1] (Rate 125 g/ha) and 10 in [1] (Rate 250 g/ha). The “Plant response rating, Barnyardgrass” value was 40 in [2] (Rate 125 g/ha) and 75 in assay [2] (Rate 250 g/ha). Further, the “Plant response rating, B. signalgrass” value in the assay with B. signalgrass (Rate 32 g/ha) is 35; in the assay on B. signalgrass (Rate 64 g/ha), 60; with B. signalgrass (Rate 125 g/ha) it was 95; with B. signalgrass (Rate 250 g/ha), 98. Besides, in assay [3] (Rate 250 g/ha), the “Plant response rating, Spanishneedles” value is listed as 100. For the same molecule, the “Plant response rating, Alexandergrass” value in assay [4] (Rate 125 g/ha) and in [4] (Rate 250 g/ha) was 100 throughout. Also, the “Plant response rating, A. bluegrass” value in assay [5] (Rate 32 g/ha), in [5] (Rate 64 g/ha), in assay [5] (Rate 125 g/ha) and in assay [5] (Rate 250 g/ha) was 100 in each case. In addition, the “Plant response rating, Arrowleaf sida” value in assay [6] (Rate 32 g/ha) worked out at 65; in assay [6] (Rate 64 g/ha) it was 50; in assay [6] (Rate 125 g/ha) it was 100; in assay [6] (Rate 250 g/ha), 100. In addition, the “Plant response rating, Com. chickweed” value in assay [7] (Rate 32 g/ha) was determined as 65; in assay [7] (Rate 64 g/ha), 85; in assay [7] (Rate 125 g/ha), 98; in assay [7] (Rate 250 g/ha), 100. The “Plant response rating, Green foxtail” value in [8] (Rate 32 g/ha), in assay [8] (Rate 64 g/ha), in assay [8] (Rate 125 g/ha) and in assay [8] (Rate 250 g/ha) was 100 throughout. Besides, the “Plant response rating, Johnsongrass” value in assay [9] (POSTEMERGENCE) and in assay [9] (PREEMERGENCE) was 100 throughout. Moreover, the results for the “Plant response rating, Leafy spurge” value in assay [10] (Rate 32 g/ha), in assay [10] (Rate 64 g/ha) and in assay [10] (Rate 250 g/ha) were 35, 65 and 98, respectively. For the same molecule, the “Plant response rating, Quackgrass” value in [11] (Rate 32 g/ha) is recorded as 65; in assay [11] (Rate 64 g/ha), 65; in assay [11] (Rate 125 g/ha), 95; in assay [11] (Rate 250 g/ha), 95. The “Plant response rating, Sandbur” value in assay [12] was 100.
Consider `CCc1cnc(-c2ccc(C(F)(F)F)cc2)nc1Cc1cccc(C(F)(F)F)c1` [Compound 22], for which, in assay [13] (Rate 250 g/ha), the “Plant response rating, Downy brome” value was 10. The “Plant response rating, Wild mustard” value in assay [14] (Rate 62 g/ha) came to 30; in [14] (Rate 125 g/ha), 60; in [14] (Rate 250 g/ha), 30.
In the case of `COc1cnc(-c2ccc(C(F)(F)F)cc2)nc1Cc1cccc(C(F)(F)F)c1` [Compound 23], the “Plant response rating, Spanishneedles” value in assay [3] (Rate 125 g/ha) and in [3] (Rate 250 g/ha) was 100 throughout.
Turning to `Cc1cnc(-n2ccc(C(F)(F)F)n2)nc1Cc1cccc(OC(F)(F)F)c1` [Compound 42], the “Plant response rating, Spanishneedles” value in [3] (Rate 125 g/ha) is given as 100.
With `Cc1cnc(-n2cnc(C(F)(F)F)c2)nc1Cc1cccc(C(F)(F)F)c1` [Compound 44], the “Plant response rating, Itchgrass” value in assay [15] (Rate 32 g/ha) and in assay [15] (Rate 64 g/ha) was 0 each time. The “Plant response rating, Johnsongrass” value in [16] came out at 0.
Take `Cc1cnc(-n2cnc(C(F)(F)F)n2)nc1Cn1ccc(C(F)(F)F)n1` [Compound 51]: the “Plant response rating, Downy brome” value in [13] (Rate 31 g/ha) and in assay [13] (Rate 62 g/ha) was 80 in each case. Further, the “Plant response rating, Wild mustard” value in [14] (Rate 31 g/ha) and in assay [14] (Rate 62 g/ha) was 100 in each case.
Consider `Cc1cnc(-n2ccc(C(F)(F)F)n2)nc1Cn1ccc(C(F)(F)F)n1` [Compound 52], for which the “Plant response rating, P. morninglory” value in assay [17] (Rate 64 g/ha) and in assay [17] (Rate 125 g/ha) was 100 throughout. For the same molecule, the “Plant response rating, Downy brome” value came to 30 in assay [13] (Rate 31 g/ha), 40 in assay [13] (Rate 62 g/ha) and 50 in [13] (Rate 125 g/ha). Besides, the “Plant response rating, Wild mustard” value came out at 90 in assay [14] (Rate 31 g/ha), 90 in [14] (Rate 62 g/ha) and 100 in assay [14] (Rate 125 g/ha).
Turning to `Cc1cnc(-c2ccc(C(F)(F)F)cc2)nc1Cc1cccc(C(F)(F)F)c1` [Example 1, 5-methyl-2-[4-(trifluoromethyl)phenyl]-4-[[3-(trifluoromethyl)phenyl]methyl]pyrimidine], the “Plant response rating, Barnyardgrass” value in assay [2] (Rate 32 g/ha) worked out at 5; in [2] (Rate 64 g/ha), 70; in [2] (Rate 125 g/ha), 80. In addition, the “Plant response rating, B. signalgrass” value with B. signalgrass (Rate 32 g/ha) turned out to be 20; with B. signalgrass (Rate 64 g/ha), 90; with B. signalgrass (Rate 125 g/ha) it was 100. Moreover, the “Plant response rating, Spanishneedles” value in [3] (Rate 250 g/ha) stood at 100. Further, the “Plant response rating, Alexandergrass” value in [4] (Rate 250 g/ha) was determined as 100. Also, the “Plant response rating, A. bluegrass” value in assay [5] (Rate 32 g/ha) turned out to be 90; in assay [5] (Rate 64 g/ha), 100; in assay [5] (Rate 125 g/ha), 100. The “Plant response rating, Arrowleaf sida” value in assay [6] (Rate 32 g/ha) came to 98; in [6] (Rate 64 g/ha), 98; in assay [6] (Rate 125 g/ha), 100. Also, the entries for the “Plant response rating, Com. chickweed” value in [7] (Rate 32 g/ha), in [7] (Rate 64 g/ha) and in [7] (Rate 125 g/ha) were 30, 95 and 100, respectively. Further, the “Plant response rating, Green foxtail” value in assay [8] (Rate 32 g/ha), in assay [8] (Rate 64 g/ha) and in assay [8] (Rate 125 g/ha) was 100 in each case. In addition, the “Plant response rating, Johnsongrass” value in [9] (PREEMERGENCE) was 100. For the same molecule, the “Plant response rating, Leafy spurge” value is given as 75 in assay [10] (Rate 32 g/ha), 95 in assay [10] (Rate 64 g/ha) and 100 in assay [10] (Rate 125 g/ha). Also, the “Plant response rating, P. morninglory” value in assay [17] (Rate 125 g/ha) and in [17] (Rate 250 g/ha) was 100 throughout. Besides, the results for the “Plant response rating, Quackgrass” value in assay [11] (Rate 32 g/ha), in assay [11] (Rate 64 g/ha) and in assay [11] (Rate 125 g/ha) were 65, 80 and 100, respectively. Further, in assay [12], the “Plant response rating, Sandbur” value is 100. The entries for the “Plant response rating, Downy brome” value in assay [13] (Rate 31 g/ha), in assay [13] (Rate 62 g/ha) and in assay [13] (Rate 125 g/ha) were 30, 50 and 60, respectively. Moreover, the “Plant response rating, Wild mustard” value is recorded as 60 in assay [14] (Rate 31 g/ha), 100 in [14] (Rate 62 g/ha), 100 in assay [14] (Rate 125 g/ha) and 98 in assay [14] (Rate 250 g/ha).
